Source: patent publication US12071441B2, “10-(di(phenyl)methyl)-4-hydroxy-8,9,9A,10-tetrahydro-7H-pyrrolo[1′,2′:4,5]pyrazino[1,2-b]pyridazine-3,5-dione derivatives and related compounds as inhibitors of the orthomyxovirus replication for treating influenza” (Novartis AG, priority 2018, dated 2024)

Experiments:
Assay in all cases: microbe, parasite or virus in culture
Assay type in all cases: cell-based
[1] = test system: influenza A virus minigenome (PB2, PB1, PA, NP; luciferase reporter) in 293T cells, RNP_Alaska; details: HEK-293T, 48 h
[2] = test system: influenza A virus minigenome (PB2, PB1, PA, NP; luciferase reporter) in 293T cells, RNP_CAL; details: HEK-293T, 48 h, read-out: RNP_CAL_EC50
[3] = test system: influenza A virus minigenome (PB2, PB1, PA, NP; luciferase reporter) in 293T cells, RNP_Hubei; details: HEK-293T, 48 h

Row | Structure (SMILES) | EC50 [1] [µM] | EC50 [2] [µM] | EC50 [3] [µM]
1 | COc1cccc([C@@H](c2cccc(F)c2F)[C@H]2[C@H]3CCCN3C(=O)c3c(O)c(=O)cnn32)c1 [Example 29, (9aR,10S)-10-((S)-(2,3-difluorophenyl)(3-methoxyphenyl)methyl)-4-hydroxy-8,9,9a,10-tetrahydro-7H-pyrrolo[1′,2′:4,5]pyrazino[1,2-b]pyridazine-3,5-dione] | 0.1 to 1 | 0.1 to 1 | 0.1 to 1
2 | COC(=O)OCOc1c2n(ncc1=O)[C@@H]([C@H](c1ccccc1)c1cccc(F)c1F)[C@H]1CCCN1C2=O [Example 30, (((9aR,10S)-10-((R)-(2,3-difluorophenyl)(phenyl)methyl)-3,5-dioxo-3,5,8,9,9a,10-hexahydro-7H-pyrrolo[1′,2′:4,5]pyrazino[1,2-b]pyridazin-4-yl)oxy)methyl methyl carbonate] | < 0.1 | < 0.1 | < 0.1
3 | CC(C)C(=O)Oc1c2n(ncc1=O)[C@@H]([C@H](c1ccccc1)c1cccc(F)c1F)[C@H]1CCCN1C2=O [Example 31, (9aR,10S)-10-((R)-(2,3-difluorophenyl)(phenyl)methyl)-3,5-dioxo-3,5,8,9,9a,10-hexahydro-7H-pyrrolo[1′,2′:4,5]pyrazino[1,2-b]pyridazin-4-yl isobutyrate] | < 0.1 | < 0.1 | < 0.1
4 | CC(C)C(=O)OCOc1c2n(ncc1=O)[C@@H]([C@H](c1ccccc1)c1cccc(F)c1F)[C@H]1CCCN1C2=O [Example 32, (((9aR,10S)-10-((R)-(2,3-difluorophenyl)(phenyl)methyl)-3,5-dioxo-3,5,8,9,9a,10-hexahydro-7H-pyrrolo[1′,2′:4,5]pyrazino[1,2-b]pyridazin-4-yl)oxy)methyl isobutyrate] | < 0.1 | < 0.1 | < 0.1
5 | COC(=O)OC(C)Oc1c2n(ncc1=O)[C@@H]([C@H](c1ccccc1)c1cccc(F)c1F)[C@H]1CCCN1C2=O (stereo partly drawn) [Example 33, 1-(((9aR,10S)-10-((R)-(2,3-difluorophenyl)(phenyl)methyl)-3,5-dioxo-3,5,8,9,9a,10-hexahydro-7H-pyrrolo[1′,2′:4,5]pyrazino[1,2-b]pyridazin-4-yl)oxy)ethyl methyl carbonate] | 0.1 to 1 | < 0.1 | < 0.1
6 | CC(C)OC(=O)Oc1c2n(ncc1=O)[C@@H]([C@H](c1ccccc1)c1cccc(F)c1F)[C@H]1CCCN1C2=O [Example 34, (9aR,10S)-10-((R)-(2,3-difluorophenyl)(phenyl)methyl)-3,5-dioxo-3,5,8,9,9a,10-hexahydro-7H-pyrrolo[1′,2′:4,5]pyrazino[1,2-b]pyridazin-4-yl isopropyl carbonate] | < 0.1 | < 0.1 | < 0.1
7 | CN(C)C(=O)Oc1c2n(ncc1=O)[C@@H]([C@H](c1ccccc1)c1cccc(F)c1F)[C@H]1CCCN1C2=O [Example 35, (9aR,10S)-10-((R)-(2,3-difluorophenyl)(phenyl)methyl)-3,5-dioxo-3,5,8,9,9a,10-hexahydro-7H-pyrrolo[1′,2′:4,5]pyrazino[1,2-b]pyridazin-4-yl dimethylcarbamate] | ≥ 1 | ≥ 1 | ≥ 1
8 | CN1CCN(C(=O)OCOc2c3n(ncc2=O)[C@@H]([C@H](c2ccccc2)c2cccc(F)c2F)[C@H]2CCCN2C3=O)CC1 [Example 36, (((9aR,10S)-10-((R)-(2,3-difluorophenyl)(phenyl)methyl)-3,5-dioxo-3,5,8,9,9a,10-hexahydro-7H-pyrrolo[1′,2′:4,5]pyrazino[1,2-b]pyridazin-4-yl)oxy)methyl 4-methylpiperazine-1-carboxylate] | ≥ 1 | ≥ 1 | ≥ 1
9 | COC(C)(C)CC(=O)Oc1c2n(ncc1=O)[C@@H]([C@H](c1ccccc1)c1cccc(F)c1F)[C@H]1CCCN1C2=O [Example 39, (9aR,10S)-10-((R)-(2,3-difluorophenyl)(phenyl)methyl)-3,5-dioxo-3,5,8,9,9a,10-hexahydro-7H-pyrrolo[1′,2′:4,5]pyrazino[1,2-b]pyridazin-4-yl 3-methoxy-3-methylbutanoate] | < 0.1 | < 0.1 | < 0.1
10 | COC(C)(C)C(=O)Oc1c2n(ncc1=O)[C@@H]([C@H](c1ccccc1)c1cccc(F)c1F)[C@H]1CCCN1C2=O [Example 40, (9aR,10S)-10-((R)-(2,3-difluorophenyl)(phenyl)methyl)-3,5-dioxo-3,5,8,9,9a,10-hexahydro-7H-pyrrolo[1′,2′:4,5]pyrazino[1,2-b]pyridazin-4-yl 2-methoxy-2-methylpropanoate] | < 0.1 | < 0.1 | < 0.1
11 | COC(=O)C(C)(C)OC(=O)OCOc1c2n(ncc1=O)[C@@H]([C@H](c1ccccc1)c1cccc(F)c1F)[C@H]1CCCN1C2=O [Example 42, methyl 2-((((((9aR,10S)-10-((R)-(2,3-difluorophenyl)(phenyl)methyl)-3,5-dioxo-3,5,8,9,9a,10-hexahydro-7H-pyrrolo[1′,2′:4,5]pyrazino[1,2-b]pyridazin-4-yl)oxy)methoxy)carbonyl)oxy)-2-methylpropanoate] | 0.1 to 1 | 0.1 to 1 | 0.1 to 1
12 | Cc1oc(=O)oc1COc1c2n(ncc1=O)[C@@H]([C@H](c1ccccc1)c1cccc(F)c1F)[C@H]1CCCN1C2=O [Example 43, (9aR,10S)-10-((R)-(2,3-difluorophenyl)(phenyl)methyl)-4-((5-methyl-2-oxo-1,3-dioxol-4-yl)methoxy)-8,9,9a,10-tetrahydro-7H-pyrrolo[1′,2′:4,5]pyrazino[1,2-b]pyridazine-3,5-dione] | < 0.1 | < 0.1 | < 0.1
13 | CN1CCN(C(=O)Oc2c3n(ncc2=O)[C@@H]([C@H](c2ccccc2)c2cccc(F)c2F)[C@H]2CCCN2C3=O)CC1 [Example 44, (9aR,10S)-10-((R)-(2,3-difluorophenyl)(phenyl)methyl)-3,5-dioxo-3,5,8,9,9a,10-hexahydro-7H-pyrrolo[1′,2′:4,5]pyrazino[1,2-b]pyridazin-4-yl 4-methylpiperazine-1-carboxylate] | 0.1 to 1 | 0.1 to 1 | < 0.1
14 | COC(=O)OCOc1c2n(ncc1=O)[C@@H]([C@H](c1cccc(F)c1)c1ccc(F)c(F)c1)[C@H]1CCCN1C2=O [Example 45, (((9aR,10S)-10-((R)-(3,4-difluorophenyl)(3-fluorophenyl)methyl)-3,5-dioxo-3,5,8,9,9a,10-hexahydro-7H-pyrrolo[1′,2′:4,5]pyrazino[1,2-b]pyridazin-4-yl)oxy)methyl methyl carbonate] | < 0.1 | < 0.1 | < 0.1
15 | O=C(Oc1c2n(ncc1=O)[C@@H]([C@H](c1ccccc1)c1cccc(F)c1F)[C@H]1CCCN1C2=O)N1CCCCC1 [Example 48, (9aR,10S)-10-((R)-(2,3-difluorophenyl)(phenyl)methyl)-3,5-dioxo-3,5,8,9,9a,10-hexahydro-7H-pyrrolo[1′,2′:4,5]pyrazino[1,2-b]pyridazin-4-yl piperidine-1-carboxylate] | < 0.1 | < 0.1 | < 0.1
16 | CC(C)(C)OC(=O)Oc1c2n(ncc1=O)[C@@H]([C@H](c1ccccc1)c1cccc(F)c1F)[C@H]1CCCN1C2=O [Example 49, tert-butyl ((9aR,10S)-10-((R)-(2,3-difluorophenyl)(phenyl)methyl)-3,5-dioxo-3,5,8,9,9a,10-hexahydro-7H-pyrrolo[1′,2′:4,5]pyrazino[1,2-b]pyridazin-4-yl) carbonate] | < 0.1 | < 0.1 | < 0.1
